Laboratory results published in ChEMBL document CHEMBL5149994, “Anticancer potential of indirubins in medicinal chemistry: Biological activity, structural modification, and structure-activity relationship” (Eur J Med Chem, 2021).
Blank lines part the entries; values can stand above or below the molecule they belong to.

Tests used:
MIA PaCa-2 = assay: Antiproliferative activity against human MIA PaCa-2 cells assessed as cell growth inhibition measured after 42 hrs by MTS assay; type: functional, cell-based; details: MIA PaCa-2, 42 h
[1] = molecular target: T1, Tyrosine-protein kinase JAK2 (Homo sapiens, UniProt O60674); assay: Inhibition of recombinant JAK2 (unknown origin)
[2] = molecular target: Tyrosine-protein kinase JAK1 (Homo sapiens, UniProt P23458); assay: Inhibition of recombinant JAK1 (unknown origin)
[3] = molecular target: Non-receptor tyrosine-protein kinase TYK2 (Homo sapiens, UniProt P29597); assay: Inhibition of recombinant Tyk2 (unknown origin)
[4] = molecular target: Tyrosine-protein kinase Lyn (Homo sapiens, UniProt P07948); assay: Inhibition of recombinant Lyn (unknown origin)
[5] = molecular target: Tyrosine-protein kinase HCK (Homo sapiens, UniProt P08631); assay: Inhibition of recombinant Hck (unknown origin)
BXPC-3 = assay: Antiproliferative activity against human BXPC-3 cells assessed as cell growth inhibition measured after 42 hrs by MTS assay; type: functional, cell-based; details: BXPC-3, 42 h
PANC-1 = assay: Antiproliferative activity against human PANC-1 cells assessed as cell growth inhibition measured after 42 hrs by MTS assay; type: functional, cell-based; details: PANC-1, 42 h
[6] = molecular target: Proto-oncogene tyrosine-protein kinase Src (Homo sapiens, UniProt P12931); assay: Inhibition of recombinant c-Src (unknown origin)
HT-29 = assay: Antiproliferative activity against human HT-29 cells assessed as cell growth inhibition measured after 72 hrs by tetrazolium staining based assay; type: functional; details: HT-29, 72 h
[7] = molecular target: Hepatocyte growth factor receptor (Homo sapiens, UniProt P08581); assay: Inhibition of c-met (unknown origin) by TR-FRET assay
[8] = molecular target: T1, Tyrosine-protein kinase JAK2; assay: Inhibition of JAK2 (unknown origin) by TR-FRET assay
[9] = molecular target: ALK tyrosine kinase receptor (Homo sapiens, UniProt Q9UM73); assay: Inhibition of ALK (unknown origin) by TR-FRET assay
MCF7 [10] = assay: Antiproliferative activity against human MCF7 cells assessed as cell growth inhibition at 10 uM by crystal violet staining based assay relative to control; type: functional; design: scale not given: the % may be the effect or the level left
A2058 = assay: Antitumor activity against human A2058 cells xenografted in BALB/c mouse assessed as reduction in tumour volume at 50 mg/kg per day, po administered via oral gavage treated every other day for 14 days relative to control; type: functional; design: scale not given: the % may be the effect or the level left; details: time 14 day
[11] = Antitumor activity against mouse 4T1-Luc cells xenografted in BALB/c mouse assessed as decrease in lung metastasis at 1 mg/kg, iv measured after 8 days […]; type: functional; design: scale not given: the % may be the effect or the level left; details: time 8 day
LoVo = assay: Cytotoxicity against human LoVo cells assessed as cell growth inhibition by MTT assay; type: functional, cell-based
MCF7 [12] = assay: Cytotoxicity against human MCF7 cells assessed as cell growth inhibition by MTT assay; type: functional, cell-based
LNCaP = assay: Cytotoxicity against human LNCaP cells assessed as cell growth inhibition by MTT assay; type: functional, cell-based
[13] = molecular target: Cyclin-dependent kinase 5/CDK5 activator 1 (Homo sapiens, UniProt Q00535); assay: Inhibition of GST-fused CDK5/p25 (unknown origin); type: protein-complex assay
[14] = Inhibition of starfish oocyte CDK1/Cyclin B using histone H1 as substrate incubated for 10 mins in presence of [gamma-32P]ATP by scintillation counter analysis; design: species or system Marthasterias glacialis
[15] = molecular target: Glycogen synthase kinase-3 (Sus scrofa, UniProt B2LUN4+I6LNT8); assay: Inhibition of porcine brain GSK-3alpha/beta incubated for 30 mins in presence of [33p]-gamma ATP by scintillation counter analysis
SK-N-SH = assay: Antiproliferative activity against human SK-N-SH cells assessed as cell growth inhibition; type: functional, cell-based
IMR-32 = assay: Antiproliferative activity against human IMR-32 cells assessed as cell growth inhibition; type: functional, cell-based
[16] = Antitumor activity against human PDAC cells xenografted in BALB/c nu/nu mouse assessed as reduction in tumour weight at 40 mg/kg, ip treated every other day for 6 days relative to control; type: functional; design: scale not given: the % may be the effect or the level left; details: time 6 day
Aurora kinase B = Aurora kinase B (Homo sapiens, UniProt Q96GD4); assay: Inhibition of Aurora B (unknown origin)
Aurora kinase C = Aurora kinase C (Homo sapiens, UniProt Q9UQB9); assay: Inhibition of Aurora C (unknown origin)
[17] = Antiproliferative activity against human TT cells assessed as cell growth inhibition measured after 48 hrs by Cell titer-Glo assay; type: functional, cell-based

T1 sequence (O60674 whole entry): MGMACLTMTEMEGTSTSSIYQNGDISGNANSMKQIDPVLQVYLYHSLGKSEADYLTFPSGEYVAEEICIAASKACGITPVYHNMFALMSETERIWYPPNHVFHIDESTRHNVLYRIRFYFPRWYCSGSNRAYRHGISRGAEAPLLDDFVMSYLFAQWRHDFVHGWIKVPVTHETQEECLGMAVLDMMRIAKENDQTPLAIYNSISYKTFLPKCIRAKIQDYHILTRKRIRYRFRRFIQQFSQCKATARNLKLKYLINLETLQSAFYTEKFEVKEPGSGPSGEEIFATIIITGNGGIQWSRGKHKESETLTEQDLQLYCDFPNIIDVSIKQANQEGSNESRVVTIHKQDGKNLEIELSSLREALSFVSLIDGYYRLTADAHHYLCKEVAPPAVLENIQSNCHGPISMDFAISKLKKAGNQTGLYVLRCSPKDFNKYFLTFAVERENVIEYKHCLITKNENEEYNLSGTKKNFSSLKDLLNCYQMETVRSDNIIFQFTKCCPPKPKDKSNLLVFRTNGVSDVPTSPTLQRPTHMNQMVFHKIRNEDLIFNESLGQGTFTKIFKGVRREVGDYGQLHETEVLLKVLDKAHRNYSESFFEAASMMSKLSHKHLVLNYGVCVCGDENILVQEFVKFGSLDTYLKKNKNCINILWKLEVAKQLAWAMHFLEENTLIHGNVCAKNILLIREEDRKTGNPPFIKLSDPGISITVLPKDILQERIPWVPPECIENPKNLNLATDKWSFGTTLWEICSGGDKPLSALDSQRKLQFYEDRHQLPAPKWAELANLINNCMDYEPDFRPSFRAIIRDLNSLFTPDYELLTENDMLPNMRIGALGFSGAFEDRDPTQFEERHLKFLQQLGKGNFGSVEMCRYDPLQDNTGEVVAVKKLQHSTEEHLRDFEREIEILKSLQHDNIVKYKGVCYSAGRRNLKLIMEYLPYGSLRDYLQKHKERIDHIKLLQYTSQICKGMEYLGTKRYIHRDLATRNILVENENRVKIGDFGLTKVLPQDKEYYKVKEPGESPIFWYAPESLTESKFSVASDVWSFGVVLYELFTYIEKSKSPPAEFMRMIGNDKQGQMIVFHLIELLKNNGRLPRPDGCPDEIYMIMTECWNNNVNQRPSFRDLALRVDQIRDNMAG
Chain of Non-receptor tyrosine-protein kinase TYK2 (P29597 whole entry): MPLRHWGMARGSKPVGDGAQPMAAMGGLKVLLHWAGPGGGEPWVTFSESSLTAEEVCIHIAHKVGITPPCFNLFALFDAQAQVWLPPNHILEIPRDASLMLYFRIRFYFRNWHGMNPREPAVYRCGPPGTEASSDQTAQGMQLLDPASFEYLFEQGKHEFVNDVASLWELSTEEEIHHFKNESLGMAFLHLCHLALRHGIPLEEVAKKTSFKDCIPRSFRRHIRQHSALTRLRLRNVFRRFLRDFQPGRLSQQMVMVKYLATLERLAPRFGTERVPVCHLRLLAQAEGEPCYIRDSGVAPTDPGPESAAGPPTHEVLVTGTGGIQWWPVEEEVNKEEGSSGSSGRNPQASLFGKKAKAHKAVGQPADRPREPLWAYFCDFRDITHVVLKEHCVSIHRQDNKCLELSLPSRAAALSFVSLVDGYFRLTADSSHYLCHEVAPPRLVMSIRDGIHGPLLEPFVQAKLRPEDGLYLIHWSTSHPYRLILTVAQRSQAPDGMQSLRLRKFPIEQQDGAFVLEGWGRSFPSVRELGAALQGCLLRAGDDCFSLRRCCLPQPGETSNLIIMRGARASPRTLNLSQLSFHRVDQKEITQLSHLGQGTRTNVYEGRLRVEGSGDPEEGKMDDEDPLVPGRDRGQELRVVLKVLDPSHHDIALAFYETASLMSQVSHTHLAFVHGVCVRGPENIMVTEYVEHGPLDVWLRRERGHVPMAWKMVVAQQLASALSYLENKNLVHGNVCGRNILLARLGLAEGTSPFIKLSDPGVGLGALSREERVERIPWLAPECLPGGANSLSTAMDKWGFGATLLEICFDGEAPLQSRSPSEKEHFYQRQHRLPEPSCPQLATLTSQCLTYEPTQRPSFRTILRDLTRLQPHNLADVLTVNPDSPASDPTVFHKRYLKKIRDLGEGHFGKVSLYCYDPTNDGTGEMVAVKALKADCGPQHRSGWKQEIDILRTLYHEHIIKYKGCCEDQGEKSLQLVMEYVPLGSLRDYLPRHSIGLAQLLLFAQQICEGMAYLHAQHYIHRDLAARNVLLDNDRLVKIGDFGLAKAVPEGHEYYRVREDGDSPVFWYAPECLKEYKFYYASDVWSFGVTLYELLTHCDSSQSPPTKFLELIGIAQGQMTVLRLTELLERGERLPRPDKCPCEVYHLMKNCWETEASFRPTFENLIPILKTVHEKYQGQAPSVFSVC
Chain of Aurora kinase C (Q9UQB9 whole entry): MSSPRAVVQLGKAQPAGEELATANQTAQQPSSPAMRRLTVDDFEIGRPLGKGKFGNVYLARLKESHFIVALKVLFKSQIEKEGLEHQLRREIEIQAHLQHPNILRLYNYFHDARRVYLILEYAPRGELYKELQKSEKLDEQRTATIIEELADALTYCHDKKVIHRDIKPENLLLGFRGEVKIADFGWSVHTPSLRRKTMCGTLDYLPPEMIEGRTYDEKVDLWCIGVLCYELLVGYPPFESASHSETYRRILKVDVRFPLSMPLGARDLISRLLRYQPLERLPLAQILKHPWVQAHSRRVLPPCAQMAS
Chain of Tyrosine-protein kinase HCK (P08631 whole entry): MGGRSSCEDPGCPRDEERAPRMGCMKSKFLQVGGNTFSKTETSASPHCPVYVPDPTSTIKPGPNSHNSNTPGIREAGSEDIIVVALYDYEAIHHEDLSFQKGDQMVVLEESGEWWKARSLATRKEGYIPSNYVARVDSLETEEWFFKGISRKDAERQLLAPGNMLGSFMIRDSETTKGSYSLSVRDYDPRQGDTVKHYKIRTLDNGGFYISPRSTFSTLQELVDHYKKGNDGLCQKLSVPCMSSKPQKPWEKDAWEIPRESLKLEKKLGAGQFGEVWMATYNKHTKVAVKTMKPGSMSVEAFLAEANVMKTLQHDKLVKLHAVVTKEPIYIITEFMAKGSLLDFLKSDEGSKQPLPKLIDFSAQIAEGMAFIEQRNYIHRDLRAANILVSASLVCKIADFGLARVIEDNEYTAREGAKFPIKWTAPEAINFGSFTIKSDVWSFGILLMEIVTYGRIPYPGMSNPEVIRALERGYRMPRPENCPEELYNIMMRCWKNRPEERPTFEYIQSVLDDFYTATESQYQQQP
Chain of Cyclin-dependent kinase 5/CDK5 activator 1 (Q00535 whole entry, the tested form may be a part): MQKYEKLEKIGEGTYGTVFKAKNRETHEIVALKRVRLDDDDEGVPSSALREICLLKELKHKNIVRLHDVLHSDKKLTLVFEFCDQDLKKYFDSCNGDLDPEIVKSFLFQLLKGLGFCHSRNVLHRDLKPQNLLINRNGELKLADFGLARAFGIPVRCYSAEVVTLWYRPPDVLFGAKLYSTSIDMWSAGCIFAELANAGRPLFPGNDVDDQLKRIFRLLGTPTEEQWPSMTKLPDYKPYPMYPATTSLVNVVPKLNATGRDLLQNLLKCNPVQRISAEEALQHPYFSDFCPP
Chain of Cyclin-dependent kinase 5/CDK5 activator 1 (Q15078 whole entry, further chain, the tested form may be a part): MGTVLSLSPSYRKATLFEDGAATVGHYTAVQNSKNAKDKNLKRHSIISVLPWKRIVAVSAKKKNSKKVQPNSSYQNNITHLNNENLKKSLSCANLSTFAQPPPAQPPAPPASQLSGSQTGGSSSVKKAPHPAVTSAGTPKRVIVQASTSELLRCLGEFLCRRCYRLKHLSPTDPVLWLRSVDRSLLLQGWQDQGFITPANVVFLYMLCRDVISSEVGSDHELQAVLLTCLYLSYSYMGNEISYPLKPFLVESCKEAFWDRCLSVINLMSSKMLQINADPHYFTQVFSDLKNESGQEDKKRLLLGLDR
Chain of Tyrosine-protein kinase Lyn (P07948 whole entry): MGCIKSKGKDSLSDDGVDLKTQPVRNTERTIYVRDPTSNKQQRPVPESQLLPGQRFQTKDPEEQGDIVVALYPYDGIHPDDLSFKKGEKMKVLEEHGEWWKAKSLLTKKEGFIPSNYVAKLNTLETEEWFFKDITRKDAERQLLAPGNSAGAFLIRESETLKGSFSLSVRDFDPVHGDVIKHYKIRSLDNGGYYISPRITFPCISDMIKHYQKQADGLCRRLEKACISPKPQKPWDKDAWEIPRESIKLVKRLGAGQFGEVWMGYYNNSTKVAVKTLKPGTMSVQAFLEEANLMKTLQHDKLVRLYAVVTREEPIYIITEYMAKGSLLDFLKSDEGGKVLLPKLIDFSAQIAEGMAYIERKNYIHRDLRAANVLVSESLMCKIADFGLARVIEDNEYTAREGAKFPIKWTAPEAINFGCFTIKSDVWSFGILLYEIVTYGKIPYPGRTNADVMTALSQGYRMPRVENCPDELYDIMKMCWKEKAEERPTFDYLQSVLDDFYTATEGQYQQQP
Chain of Aurora kinase B (Q96GD4 whole entry): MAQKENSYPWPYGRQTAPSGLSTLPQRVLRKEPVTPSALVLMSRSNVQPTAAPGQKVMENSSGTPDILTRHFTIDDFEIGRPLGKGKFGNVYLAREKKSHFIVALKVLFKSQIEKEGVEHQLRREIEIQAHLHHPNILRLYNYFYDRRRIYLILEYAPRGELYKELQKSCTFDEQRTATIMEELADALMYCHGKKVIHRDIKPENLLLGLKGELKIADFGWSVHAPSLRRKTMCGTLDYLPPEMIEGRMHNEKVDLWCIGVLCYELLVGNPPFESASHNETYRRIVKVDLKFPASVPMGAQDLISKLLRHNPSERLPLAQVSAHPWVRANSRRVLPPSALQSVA

- IC50 (MIA PaCa-2): 760 nM
- IC50 [1]: 10.7 nM
- IC50 [2]: 10.7 nM
- IC50 [3]: 10.7 nM
- IC50 [4]: 10.7 nM
- IC50 [5]: 10.7 nM
- IC50 (BXPC-3): 760 nM
- IC50 (PANC-1): 760 nM
- IC50 [6]: 10.7 nM
SMILES: COc1ccc2c(c1)/C(=C1/Nc3ccccc3/C1=N\OCC(O)CO)C(=O)N2 (centres undefined)

- IC50 (HT-29): 4220 nM
- IC50 [7]: > 10000 nM
- IC50 [8]: > 10000 nM
- IC50 [9]: > 10000 nM
SMILES: O=C1Nc2ccc(C(=O)N3CCCCC3)cc2/C1=C1/Nc2ccccc2/C1=N\O

SMILES: O=C1Nc2cc(Br)ccc2/C1=C1/Nc2ccccc2/C1=N\O [6BIO]
- Activity (MCF7 [10]): 75%
- Activity (A2058): 80%
- Activity [11]: 80%

- IC50 [13]: > 100000 nM
- IC50 [15]: > 100000 nM
SMILES: CN1C(=O)/C(=C2\Nc3ccccc3\C2=N/O)c2ccccc21
- IC50 (LoVo): > 100000 nM
- IC50 (MCF7 [12]): 58600 nM
- IC50 (LNCaP): 68900 nM
- IC50 [14]: 73000 nM

- IC50 (SK-N-SH): 70 nM
SMILES: O=C1Nc2ccccc2/C1=C1/Nc2ccccc2/C1=N\OCC1CO1 (centres undefined)
- IC50 (IMR-32): 160 nM

SMILES: COc1ccc2c(c1)/C(=C1/Nc3ccccc3/C1=N\O)C(=O)N2
- Activity [16]: 60%

- IC50 (Aurora kinase B): 4600 nM
- IC50 (Aurora kinase C): 100 nM
- IC50 [15]: 32000 nM
SMILES: O=C1Nc2c(Br)cccc2/C1=C1/Nc2ccccc2/C1=N\O
- IC50 [17]: 4100 nM
